From ChEMBL document CHEMBL4396945, “Hybrid molecules of scutellarein and tertramethylpyrazine's active metabolites for ischemic stroke” (Bioorg Med Chem Lett, 2019)
In brackets after ≈: the same amount, converted by molar mass. Activity calls are given as the source filed them. The calls are words filed in the database; no cut-off is given here.

Legend:
Rattus norvegicus [1] = test: Neuroprotective activity in ig dosed Sprague-Dawley rat model of middle cerebral artery occlusion-induced ischemia-reperfusion injury assessed as decrease in infarct area by TTC staining based assay; format: functional, organism-based
Rattus norvegicus [2] = test: Neuroprotective activity in Sprague-Dawley rat middle cerebral artery occlusion-induced ischemia-reperfusion injury model assessed as reduction in dissolution of hippocampus CA1 at 0.35 to 1.40 mmol/kg, ig administered for 7 days by HE staining based assay; format: functional, organism-based
Rattus norvegicus [3] = test: Neuroprotective activity in Sprague-Dawley rat middle cerebral artery occlusion-induced ischemia-reperfusion injury model assessed as reduction in hyperchromic of hippocampus CA1 at 0.35 to 1.40 mmol/kg, ig administered for 7 days by HE staining based assay; format: functional, organism-based
PC-12 = test: Antioxidant activity against H2O2-induced oxidative stress in rat PC12 cells assessed as cell viability preincubated for 24 hrs followed by H2O2 stimulation further incubated for 5 hrs by MTS assay; format: functional, cell-based
Rattus norvegicus [4] = test: Neuroprotective activity in Sprague-Dawley rat middle cerebral artery occlusion-induced ischemia-reperfusion injury model assessed as reduction in nuclear pyknosis of hippocampus CA1 at 0.35 to 1.40 mmol/kg, ig administered for 7 days by HE staining based assay; format: functional, organism-based
Plasma [5] = test: Anticoagulant activity in rabbit platelet poor plasma assessed as fibrinogen level at 100 uM incubated for 3 mins by coagulometric analysis (reference value: 14.24 +/- 0.67 g/l); format: functional, Oryctolagus cuniculus
[6] = Lipophilicity, logP of compound; format: physicochemical; settings: octanol/water
Plasma [7] = test: Anticoagulant activity in rabbit platelet poor plasma assessed as prothrombin time at 100 uM incubated for 3 mins by coagulometric analysis (reference value: 4.32 +/- 0.28 sec); format: functional, Oryctolagus cuniculus
Plasma [8] = test: Anticoagulant activity in rabbit platelet poor plasma assessed as thrombin time at 100 uM incubated for 3 mins by coagulometric analysis (reference value: 12.58 +/- 0.76 sec); format: functional, Oryctolagus cuniculus
[9] = Solubility in water; format: physicochemical
[10] = Stability in pH 7.4 phosphate buffer assessed as half life; format: physicochemical
Plasma [11] = test: Anticoagulant activity in rabbit platelet poor plasma assessed as activated partial thromboplastin time at 100 uM incubated for 3 mins by coagulometric analysis (reference value: 19.13 +/- 0.54 sec); format: functional, Oryctolagus cuniculus
Rattus norvegicus [12] = test: Neuroprotective activity in Sprague-Dawley rat middle cerebral artery occlusion-induced ischemia-reperfusion injury model assessed as decrease in irregular cell morphology of hippocampus CA1 at 0.35 to 1.40 mmol/kg, ig administered for 7 days by HE staining based assay; format: functional, organism-based
Rattus norvegicus [13] = test: Neuroprotective activity in Sprague-Dawley rat model of middle cerebral artery occlusion-induced ischemia-reperfusion injury assessed as decrease in infarct area at 0.7 mmol/kg, ig for 7 days by TTC staining based assay; format: functional, organism-based

SMILES	Activity (Rattus norvegicus [1])	Activity (Rattus norvegicus [2])	Activity (Rattus norvegicus [3])	Activity (PC-12)	Activity (Rattus norvegicus [4])	Fibrinogen level (Plasma [5])	logP [6]	PT (Plasma [7])	TT (Plasma [8])	solubility [9]	half-life [10]	APTT (Plasma [11])	Activity (Rattus norvegicus [12])	Activity (Rattus norvegicus [13])
Cc1nc(C)c(COC(=O)N[C@H](C)C(=O)Oc2ccc(-c3cc(=O)c4c(O)c(O)c(O)cc4o3)cc2)nc1C	Dose-dependent effect	Active	Active	Dose-dependent effect	Active	2.68 g/L	1.53	7.72 s	36.25 s	799 µg/mL (≈ 1490 µM)	1670 min	48.21 s	Active	
O=c1cc(-c2ccc(O)cc2)oc2cc(O)c(O)c(O)c12 [SCUTELLAREIN]				Dose-dependent effect		7.41 g/L	0.96	5.72 s	18.12 s	14.4 µg/mL (≈ 50.3 µM)	330 min	34.26 s		Active
Cc1nc(C)c(C(=O)N[C@@H](C(=O)Oc2ccc(-c3cc(=O)c4c(O)c(O)c(O)cc4o3)cc2)C(C)C)nc1C				Dose-dependent effect			1.38			240 µg/mL (≈ 449 µM)	> 4320 min			
Cc1nc(C)c(C)nc1C [LIGUSTRAZINE]				Dose-dependent effect		3.28 g/L	1.26	6.13 s	25.36 s	4500 µg/mL (≈ 33000 µM)		39.24 s		Active
Cc1nc(C)c(C(=O)N[C@@H](C(=O)N[C@@H](C)C(=O)Oc2ccc(-c3cc(=O)c4c(O)c(O)c(O)cc4o3)cc2)C(C)C)nc1C				Dose-dependent effect			1.98			856 µg/mL (≈ 1420 µM)	3100 min			
Cc1nc(C)c(C(=O)Oc2ccc(-c3cc(=O)c4c(O)c(O)c(O)cc4o3)cc2)nc1C				Dose-dependent effect			3.01			12.1 µg/mL (≈ 27.9 µM)	906 min			
Cc1nc(C)c(C(=O)N[C@H](CC(C)C)C(=O)Oc2ccc(-c3cc(=O)c4c(O)c(O)c(O)cc4o3)cc2)nc1C				Dose-dependent effect			0.91			26 µg/mL (≈ 47.5 µM)	4150 min			
Cc1nc(C)c(COC(=O)NCC(=O)Oc2ccc(-c3cc(=O)c4c(O)c(O)c(O)cc4o3)cc2)nc1C				Dose-dependent effect			2.1			454 µg/mL (≈ 871 µM)	858 min			
Cc1nc(C)c(COC(=O)CCCOc2ccc(-c3cc(=O)c4c(O)c(O)c(O)cc4o3)cc2)nc1C				Dose-dependent effect			1.48			356 µg/mL (≈ 703 µM)	1190 min			
Cc1nc(C)c(C(=O)NCC(=O)Oc2ccc(-c3cc(=O)c4c(O)c(O)c(O)cc4o3)cc2)nc1C				Dose-dependent effect		3.12 g/L	2.8	6.39 s	32.16 s	628 µg/mL (≈ 1280 µM)	> 4320 min	43.57 s		
Cc1nc(C)c(COC(=O)COc2ccc(-c3cc(=O)c4c(O)c(O)c(O)cc4o3)cc2)nc1C				Dose-dependent effect			2.39			30.6 µg/mL (≈ 64 µM)	1280 min			
Cc1nc(C)c(COC(=O)N[C@@H](C(=O)Oc2ccc(-c3cc(=O)c4c(O)c(O)c(O)cc4o3)cc2)C(C)C)nc1C				Dose-dependent effect			1.04			252 µg/mL (≈ 448 µM)	2740 min			
CC[C@H](C)[C@@H](NC(=O)OCc1nc(C)c(C)nc1C)C(=O)Oc1ccc(-c2cc(=O)c3c(O)c(O)c(O)cc3o2)cc1				Dose-dependent effect		2.54 g/L	2.83	8.32 s	38.42 s	234 µg/mL (≈ 406 µM)	3890 min	49.28 s		
Cc1nc(C)c(COC(=O)N[C@H](CC(C)C)C(=O)Oc2ccc(-c3cc(=O)c4c(O)c(O)c(O)cc4o3)cc2)nc1C				Dose-dependent effect		2.47 g/L	1.69	8.57 s	37.91 s	221 µg/mL (≈ 382 µM)	3430 min	47.56 s		
